Laboratory results reported in paper PMC8567202, “Phosphoinositide-binding activity of Smad2 is essential for its function in TGF-β signaling” (The Journal of Biological Chemistry, 2021).

Legend:
Type in all cases: cell-based
HeLa cells [1] = experiment: TIRF imaging of PM localization of EGFP-Smad2; conditions: HeLa cells, 10 ng/ml TGF-β, SB-431542 10 μM for 36 h where used
Procedure: (§1) Figure 4 Quantitative imaging analyses of spatiotemporal dynamics of Smad2.A, TIRF images of mouse EGFP-Smad2-WT transfected into HeLa cells whose endogenous Smad2 is suppressed by siRNA. Images were taken before and 5 min after TGF-β stimulation (10 ng/ml) with and without PI(4,5)P2 depletion. A pseudo-coloring scheme was used with orange and blue representing the highest and the lowest intensity, respectively. B, kinetics of TGF-β stimulated (10 ng/ml) PM localization of EGFP-Smad2-WT (blue), -K420A (green), and -W422A (orange) transfected into HeLa cells the endogenous Smad2 of which was suppressed by siRNA. For EGFP-Smad2-WT, the effect of PI(4,5)P2 depletion (black) and TβRI inhibition by SB-431542 (10 μM for 36 h) (red) were measured. Data points indicate average ±S.D. (n = 10 cells). C, spatially resolved PM PI(4,5)P2 concentration ([PI(4,5)P2]) profiles calculated from two-channel cross-sectional images of HeLa cells (before and 5 min after 10 ng/ml TGF-β stimulation and after PI(4,5)P2 depletion). Each cell is a representative of more than ten cells analyzed. Spatially averaged [PI(4,5)P2] values for each cell type are shown. […] E, time courses of the half-life of colocalization for SNAP-TMR-labeled TβRI and EGFP-Smad2 determined by dual color single-molecule tracking analysis. […] For EGFP-Smad2-WT, the effect of PI(4,5)P2 depletion (purple) was measured. […]

TβRI = experiment: Dual color single-molecule tracking, TβRI and EGFP-PLCδ-PH; conditions: HeLa cells
HeLa cells [2] = experiment: Ratiometric PI(4,5)P2 imaging; conditions: 10 ng/ml TGF-β
Procedure: as §1

NC(=O)c1ccc(-c2nc(-c3ccc4c(c3)OCO4)c(-c3ccccn3)[nH]2)cc1 [SB-431542, reference compound]
PM residence / dissociation of Smad2 (HeLa cells [1]): greatly elongated the PM residence of Smad2

EGFP-phospholipase Cδ-pleckstrin homology domain [EGFP-PLCδ-PH]
time of maximal dwell time of TβRI-PLCδ-PH complex after TGF-β stimulation (TβRI; 10 ng/ml TGF-β, n = 10 cells): 5 min
colocalization of TMR-SNAP-TβRI and EGFP-PLCδ-PH after PI(4,5)P2 depletion (TβRI; before and after TGF-β stimulation): eliminated colocalization

TGF-β: TGF-β1 was purchased from Millipore sigma (Cat no. T7039-2UG)
effect on PM PI(4,5)P2 distribution and spatially averaged concentration (HeLa cells [2]): neither spatiotemporal distribution of PI(4,5)P2 nor the spatially averaged PI(4,5)P2 concentration was altered
